The values below come from patent publication US4804502A, “Vitamin D compounds” (priority 1988, dated 1989).

Molecules are shown by their SMILES. Where two headings read alike, the source gives them in different places.

Experiment [1] has as its system HL-60 promyelocytic leukemia cells. Nature of the experiment: Inhibition of proliferation of HL-60 cells. To be noted: Homo sapiens, HL-60, 192 h, 8 days; for inhibition at 0.001 µM: 0.1 × 10^-8 M; for inhibition at 0.01 µM: 1 × 10^-8 M; for inhibition at 0.1 µM: 10 × 10^-8 M; for IC50: from dose response curves, read-out: ID50 (concentration which reduced the cell number by 50%). In kind it is cell-based. The protocol:
Inhibition of Cell Proliferation and Induction of Cell Differentiation
Cultures of HL-60 promyelocytic leukemia cells were established in the absence (control) and presence of various concentrations of test compounds. After an 8-day incubation period, the cultures were evaluated for proliferation of tumor cells, cell viability, and cellular differentiation. Proliferation was assessed by directly enumerating the increased number of tumor cells resulting from cell division during incubation. Viability was assessed by dye exclusion technique to learn whether any of the compounds were lethal to the cultured HL-60 cells. Cellular differentiation was evaluated by determining the number of cells which had acquired the enzymes necessary to support a respiratory burst, a characteristic of mature macrophages and granulocytes.
Tissue culture medium used in these experiments was RPMI-1640 supplemented to 10% v/v with heat-inactivated fetal bovine serum and to an additional 1.6 mM with L-glutamine.
Test compounds were dissolved in sufficient ethanol to yield stock solutions of 1×10^-2 or 1×10^-3 molar. Reduced lighting was used when working with compounds and stock solutions were stored in the dark at -20° C. in an argon atmosphere. Compounds were diluted in tissue culture medium and added to flasks containing HL-60 cells to achieve the final concentration described in each test.
The HL-60 tumor cell line was originally derived from a patient with promyelocytic leukemia and was obtained from the American Type Culture Collection. The cells were maintained in liquid culture by serial passage twice weekly in tissue culture medium. […] In any test, three replicate flasks were incubated without compound (control) or in the presence of varying concentrations of test compound. Ethanol, used as the vehicle, was kept constant in all dilutions in each test and had no effect on cell proliferation, viability or cell differentiation at the concentrations used (≤0.1%). After 8 days of incubation at 37° in a humidified atmosphere of 5% CO2 in air, cultures were evaluated for tumor cell proliferation, viability and differentiation.
Quantitation of proliferation was done by enumerating the number of HL-60 cells in each individual flask (3 flasks per experimental point) using an Elzone electronic particle counter. Results are shown as the percent reduction of cell number calculated for each concentration tested according to the formula: [formula] The results are also expressed as the concentration which reduced the cell number by 50% (ID50).

In the next experiment the test system is vitamin D deficient rats. To be noted: 3 weeks.
Experiment [2] concerns the target T1, 1,25-(OH)2 D3 receptors (chick intestine) (Gallus gallus, UniProt O42392).
T1 construct: receptor prepared from intestine of chick, rat and calf; from tissue; host or cells: chick proximal small-intestine mucosa, cytosol, 35% ammonium sulphate precipitate
T1 sequence (O42392 1-451): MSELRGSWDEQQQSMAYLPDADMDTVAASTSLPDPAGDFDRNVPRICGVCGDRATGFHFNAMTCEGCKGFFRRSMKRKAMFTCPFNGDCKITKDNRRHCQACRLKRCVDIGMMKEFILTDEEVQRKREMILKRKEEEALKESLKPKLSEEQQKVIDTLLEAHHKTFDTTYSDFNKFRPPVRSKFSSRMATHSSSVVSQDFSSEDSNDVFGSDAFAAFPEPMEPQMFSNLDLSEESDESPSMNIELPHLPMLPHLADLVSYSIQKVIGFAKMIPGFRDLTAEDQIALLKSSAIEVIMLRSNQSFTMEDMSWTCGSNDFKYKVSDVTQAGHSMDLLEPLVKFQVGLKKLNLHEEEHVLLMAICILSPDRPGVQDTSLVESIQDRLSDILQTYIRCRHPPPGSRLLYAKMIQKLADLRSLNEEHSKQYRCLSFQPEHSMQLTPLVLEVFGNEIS
As to the kind of experiment: Competitive Binding to 1,25-(OH)2 D3 Intestine Receptors, chick. To be noted: a/b×100 from amounts displacing 50% of 1,25-(OH)2[3H]D3. How it is done:
(§1) The ability of vitamin D3 metabolites to compete for 1,25-(OH)[^3 H]D3 receptor binding sites was evaluated with receptor prepared from intestine of chick, rat and calf. […] Mucosa was collected and washed three times with 10 volumes of cold KTED buffer. The washed mucosa was homogenized in KTED buffer (20% w/v) using a Polytron Pt20 tissue disruptor. Cytosol was prepared by centrifugation of the homogenized mucosa at 300,000×g for 1 hour. […] The ammonium sulphate treated cytosol was centrifuged at 20,000×g for 10 minutes. The supernatant was discarded and the pellet lyophilized and stored at […] Prior to binding assay the pellet was resuspended in cold binding assay buffer containing 150 mM KCl, 50 mM NaPO4, 1.5 mM EDTA and 5 mM dithiothreitol.

Experiment [3] deals with intestinal calcium absorption (duodenum). Nature of the experiment: Stimulation of Intestinal Calcium Absorption in Rat (intestinal 45Ca transport, everted gut sac). The conditions noted are these: intrajugular, 18 h.
For experiment [4], the target named is T2, 1,25-(OH)2 D3 receptors (calf intestine) (Bos taurus, UniProt Q28037).
T2 construct: receptor prepared from intestine of chick, rat and calf; from tissue; host or cells: calf proximal small-intestine mucosa, cytosol, 35% ammonium sulphate precipitate
T2 sequence (Q28037 1-426): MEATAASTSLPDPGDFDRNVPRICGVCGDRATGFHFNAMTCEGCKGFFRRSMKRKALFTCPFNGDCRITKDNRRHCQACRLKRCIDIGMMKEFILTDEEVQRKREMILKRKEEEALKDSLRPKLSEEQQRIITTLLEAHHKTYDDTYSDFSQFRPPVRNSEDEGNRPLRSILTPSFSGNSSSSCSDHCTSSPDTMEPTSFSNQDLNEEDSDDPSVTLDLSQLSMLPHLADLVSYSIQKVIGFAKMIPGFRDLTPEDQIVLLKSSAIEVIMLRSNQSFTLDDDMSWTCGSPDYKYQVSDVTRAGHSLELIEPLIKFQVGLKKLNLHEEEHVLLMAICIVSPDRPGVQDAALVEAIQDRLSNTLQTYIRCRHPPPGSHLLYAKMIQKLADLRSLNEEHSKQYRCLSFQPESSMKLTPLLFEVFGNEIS
Nature of the experiment: Competitive Binding to 1,25-(OH)2 D3 Intestine Receptors, calf. To be noted: a/b×100 from amounts displacing 50% of 1,25-(OH)2[3H]D3. The protocol: as §1

The mark [5] stands for this setting: read-out: % Reduction in cell number.

As to `C=C1/C(=C\C=C2/CCC[C@]3(C)[C@@H]([C@H](C)CC#CC(O)(C(F)(F)F)C(F)(F)F)CC[C@@H]23)C[C@@H](O)C[C@@H]1O` [Compound B], the inhibition at 0.0001 µM in experiment [1] (0.01 × 10^-8 M, read-out: % Reduction in cell number) stood at 15%. In addition, in experiment [1] (setting [5]), the inhibition at 0.001 µM came out at 31%, the inhibition at 0.01 µM worked out at 85% and the inhibition at 0.1 µM is 89%. The IC50 in experiment [1] turned out to be 2 nM. In the experiment on vitamin D deficient rats (daily dose 18 ng), the “Bone Mass” value amounted to 385 ± 77 mm^3 /cm^3, the “Serum Ca^2+” value is 15.63 ± 0.36 mg/dL and the “Serum PO4^2-” value was found to be 7.66 ± 0.17 mg/dL. In the experiment with vitamin D deficient rats (daily dose 72 ng), the “Bone Mass” value is 746 + 48 mm^3 /cm^3, the “Serum Ca^2+” value turned out to be 15.23 ± 0.22 mg/dL and the “Serum PO4^2-” value was determined as 6.34 ± 0.26 mg/dL. The “Competitive Binding to 1,25-(OH)2 D3 Receptors - % of 1,25-(OH)2 D3 Effect, chick intestine” value in experiment [2] came out at 47%. For the same molecule, the “% of 1,25-(OH)2 D3 Effect in Rat, intestinal calcium absorption” value in experiment [3] (12.5 ng/rat) was 124%. Further, in experiment [4], the “Competitive Binding to 1,25-(OH)2 D3 Receptors - % of 1,25-(OH)2 D3 Effect, calf intestine” value amounted to 62%.
Regarding `C=C1/C(=C\C=C2/CCC[C@]3(C)[C@@H]([C@H](C)CC#CC(C)(C)O)CC[C@@H]23)C[C@@H](O)C[C@@H]1O` [Compound A, 1α,25-dihydroxy-23-yne-cholecalciferol], in experiment [1] (setting [5]), the inhibition at 0.001 µM was 30%, the inhibition at 0.01 µM is 67% and the inhibition at 0.1 µM is 85%. The IC50 in experiment [1] worked out at 6 nM. In addition, the “Competitive Binding to 1,25-(OH)2 D3 Receptors - % of 1,25-(OH)2 D3 Effect, chick intestine” value in experiment [2] turned out to be 60%. Moreover, in experiment [3] (15.5 ng/rat), the “% of 1,25-(OH)2 D3 Effect in Rat, intestinal calcium absorption” value stood at 95%. In addition, in experiment [4], the “Competitive Binding to 1,25-(OH)2 D3 Receptors - % of 1,25-(OH)2 D3 Effect, calf intestine” value was 47%.
